Source: paper PMC9920567, “Discovery of Bis-Imidazoline Derivatives as New CXCR4 Ligands” (Molecules, 2023)
Entries after “also recorded” stand apart in the source; their conditions may differ. Like-named read-outs stand apart in the source and are kept apart here.

Legend:
HIV-1 NL4-3 Env = experiment: microbe, parasite or virus in culture; assay type: cell-based; conditions: Human immunodeficiency virus 1, NL43, 48 h, read-out: extrapolated IC50, infection with NL4-3 Env
CXCR4 [1] = target: T1, CXCR4 (Homo sapiens, UniProt P61073); experiment: HTRF dilution series assay on CXCR4 (displacement of red-CXCL12); assay type: binding; conditions: for IC50: HEK293 ST-CXCR4 cells, red-CXCL12 20 nM, 2 h 16 °C, one-site competitive model, read-out: HTRF CXCR4-SDF1 IC50; for inhibition of HTRF at high concentrations: dilution series
Protocol: To obtain information on the structural requirements necessary for the interaction with CXCR4, we performed dilution series experiments (see Section 3.4.) by varying the concentrations of bis-imidazoline compounds in the HTRF assay used for the screening campaign (Table 1 and Figure 1A).
A three-fold serial dilution in DMSO was performed for each compound. Each concentration was tested in duplicate. For these experiments, Tag-lite CXCR4 and Tag-lite CXCR7 cell lines (5000 cells per well) were used. […] The IC50 values were determined with the Prism Software version 9 (Graph-Pad Software, San Diego, USA) using a one-site competitive binding model.
Data points are means ± SEM for three independent experiments.

HIV-1 X4-28 Env = experiment: microbe, parasite or virus in culture; assay type: cell-based; conditions: Human immunodeficiency virus 1, 48 h, read-out: extrapolated IC50, infection with X4-28 Env
[2] = system: CXCR4-using HIV-1 strains; assay type: cell-based
endogenous CXCR4 = endogenous CXCR4 (Homo sapiens, UniProt P61073); experiment: Displacement of 125I-labeled CXCL12 binding in blood mononuclear cells; conditions: blood mononuclear cells from a healthy donor, data not shown
CXCR4 [3] = target: T1, CXCR4; experiment: HTRF Tag-lite primary screening: red-CXCL12 binding to HEK293 cells expressing ST-CXCR4; conditions: single dose 6.6 µg/mL (compound final concentration in µM in brackets), HTRF ratio of compound divided by that of AMD3100 15 µM, 20 nM red-CXCL12, hit < 1.3
Text: As a starting point of this study, we set up a high-throughput screening of 6851 compounds available at the time from the CERMN (Centre d’Etude et de Recherche sur le Médicament de Normandie) chemical library for their ability to interact with CXCR4 (see Section 3.3 for details). We applied a homogeneous cell-based binding assay using Homogeneous Time-Resolved Fluorescence resonance energy transfer (HTRF) Tag-lite technology. […] We investigated the capacity of the compounds to inhibit energy transfer between the Lumi4-Tb donor and acceptor red-CXCL12, which results in a decrease in the HTRF signal (i.e., the ratio between the acceptor and donor fluorescence signals at 665 and 620 nm, respectively). […] Each 384-well plate was analyzed independently. First, using negative and positive controls, the value of the Z′ factor [52] was determined. […]
All compounds are in DMSO at a concentration of 3.3 mg/mL (average concentration of 9.85 ± 3.7 mM). […] After a 2 h incubation at 16 °C, the fluorescence emission was measured at 620 nm and 665 nm using an excitation wavelength at 343 nm on a Safire2 (Tecan, Männedorf, Switzerland) microplate reader. The HTRF ratio was defined as following: Ratio = (Fluorescence intensity at 665 nm/Fluorescence intensity at 620 nm) × 10^4. […]

[4] = primary CD4+ T lymphocytes, NL4-3 and X4-28 Envs

T1 sequence (P61073 whole entry): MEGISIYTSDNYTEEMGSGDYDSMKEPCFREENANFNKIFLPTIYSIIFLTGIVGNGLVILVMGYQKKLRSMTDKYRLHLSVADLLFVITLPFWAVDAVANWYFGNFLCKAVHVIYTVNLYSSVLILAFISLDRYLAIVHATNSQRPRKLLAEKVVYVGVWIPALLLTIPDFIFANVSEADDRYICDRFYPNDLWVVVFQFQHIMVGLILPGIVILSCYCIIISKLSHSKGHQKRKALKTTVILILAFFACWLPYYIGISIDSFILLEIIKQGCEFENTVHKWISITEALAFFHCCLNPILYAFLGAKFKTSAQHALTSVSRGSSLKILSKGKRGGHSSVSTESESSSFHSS
Sequence of endogenous CXCR4 (P61073 whole entry): as above

Question: For `C(CCCCCNC1=NCCN1)CCCCNC1=NCCN1` [mr20349], which IC50 (HIV-1 NL4-3 Env) is on record?
Answer: 30000 nM

Question: And the IC50 (CXCR4 [1])?
Answer: 470 ± 360 nM

Question: What about the “inhibition of HTRF at high concentrations” value (shortened to “inhibition of HTRF”) (CXCR4 [1]) of the same molecule?
Answer: fully inhibited HTRF

Question: What about the IC50 (HIV-1 X4-28 Env) of the same molecule?
Answer: 1100 nM

Question: What about the anti-HIV-1 activity [2, 4] of the same molecule?
Answer: observed

Question: And the “displacement of 125I-labeled CXCL12 binding” value (endogenous CXCR4)?
Answer: confirmed

Question: Which anti-HIV-1 activity [2] does the source give for `c1cc(CN2CCCNCCNCCCNCC2)ccc1CN1CCCNCCNCCCNCC1` [AMD3100, reference compound] here?
Answer: by far the most potent antiviral activity of all tested molecules

Question: `C(CCCCCCNC1=NCCN1)CCCCCNC1=NCCN1` [mr20350] was tested. Which IC50 (HIV-1 NL4-3 Env) did it give?
Answer: 2600 nM

Question: And the “inhibition of HTRF” value (CXCR4 [1])?
Answer: fully inhibited HTRF

Question: What about the IC50 (HIV-1 X4-28 Env) of the same molecule?
Answer: 720 nM

Question: What about the anti-HIV-1 activity [2, 4] of the same molecule?
Answer: observed; also recorded: strongest anti-HIV-1 activity

Question: Which results are given for `C(CCCNC1=NCCN1)CCCNC1=NCCN1` [mr20346]?
Answer: HTRF CXCR4-SDF1 Relative HTRF Ratio (CXCR4 [3]): 1.87 (12.6); IC50 (CXCR4 [1]): 1850 ± 930 nM

Question: How did the IC50 (CXCR4 [1]) turn out when `C(CCCCCNC1=NCCN1)CCCCCNC1=NCCN1` [mr34200] was run?
Answer: 15500 nM

Question: For `C(CCCNC1=NCCN1)CCNC1=NCCN1` [mr20345], which “HTRF CXCR4-SDF1 Relative HTRF Ratio” value (CXCR4 [3]) is on record?
Answer: 2.78 (13.0)

Question: What about the IC50 (CXCR4 [1]) of the same molecule?
Answer: 40900 ± 23000 nM

Question: How did the IC50 (CXCR4 [1]) turn out when `C(CCCCNC1=NCCN1)CCCNC1=NCCN1` [mr20347] was run?
Answer: 350 ± 90 nM

Question: And the “inhibition of HTRF” value (CXCR4 [1])?
Answer: fully inhibited HTRF

Question: And the anti-HIV-1 activity [2, 4]?
Answer: not and no effect

Question: How did the IC50 (CXCR4 [1]) turn out when `C(CCCCNC1=NCCN1)CCCCNC1=NCCN1` [mr20348] was run?
Answer: 6620 ± 4310 nM
